Calls of active or inactive are those of the source. The calls are words filed in the database; no cut-off is given here.
What was measured:
[1] = tested on: Echinochloa oryzicola; test: Pre-emergence herbicidal activity against Echinochloa oryzicola assessed as weed killing at 2 kg ai/ha measured 30 days after compound treatment under green house conditions; format: functional
[2] = tested on: Echinochloa oryzicola; test: Post-emergence herbicidal activity against Echinochloa oryzicola assessed as weed killing at 2 kg ai/ha measured 30 days after compound treatment under green house conditions; format: functional
[3] = tested on: Schoenoplectiella juncoides; test: Post-emergence herbicidal activity against Schoenoplectiella juncoides assessed as weed killing at 2 kg ai/ha measured 30 days after compound treatment under green house conditions; format: functional
[4] = tested on: Schoenoplectiella juncoides; test: Pre-emergence herbicidal activity against Schoenoplectiella juncoides assessed as weed killing at 2 kg ai/ha measured 30 days after compound treatment under green house conditions; format: functional
[5] = tested on: Oryza sativa; test: Post-emergence phytotoxicity against Oryza sativa (rice) plants exposed to compound applied on surface of water 7 days after transplantation assessed as plant killing at 0.5 kg ai/ha measured 3 weeks after compound treatment under green house conditions; format: organism-based; conditions: other, 504 h
[6] = tested on: Echinochloa oryzicola; test: Post-emergence herbicidal activity against Echinochloa oryzicola assessed as weed killing at 0.5 kg ai/ha measured 30 days after compound treatment under green house conditions; format: functional
[7] = tested on: Echinochloa oryzicola; test: Induction of plant secretory pathway perturbations in Echinochloa oryzicola seedlings exposed to 10 uM compound 3 days after sowing assessed as induction of cytological changes in root apical tip area measured after 4 to 8 hr days post compound treatment by electron microscopy; format: functional, organism-based
[8] = tested on: Echinochloa oryzicola; test: (§1) Induction of plant secretory pathway perturbations in Echinochloa oryzicola seedlings root tips area exposed to 10 uM compound 3 days after sowing assessed as induction of obscuring of cell wall measured after 4 hr days post compound treatment by electron microscopy; format: functional, organism-based
[9] = tested on: Echinochloa oryzicola; test: as §1, with “vesicles accumulation at plasma membrane-cell” for “obscuring of cell”, “wall interface” for “wall”, “8” for “4”; format: functional, organism-based
[10] = tested on: Schoenoplectiella juncoides; test: Herbicidal activity against Schoenoplectiella juncoides assessed as compound application rate causing complete weed control measured 30 days after compound treatment under green house conditions; format: functional
[11] = tested on: Echinochloa oryzicola; test: Induction of plant secretory pathway perturbations in Echinochloa oryzicola seedlings exposed to 10 uM compound 3 days after sowing assessed as induction of accumulation of dense vesicles around root tip golgi apparatus measured after 4 hr days post compound treatment by electron microscopy; format: functional, organism-based
[12] = tested on: Cyperus serotinus; test: Herbicidal activity against Cyperus serotinus assessed as compound application rate causing complete weed control measured 30 days after compound treatment under green house conditions; format: functional
[13] = tested on: Echinochloa oryzicola; test: (§2) Induction of plant secretory pathway perturbations in Echinochloa oryzicola seedlings root tips area exposed to 10 uM compound 3 days after sowing assessed as induction of curved cell wall membrane-cell wall interface measured after 8 hr days post compound treatment by electron microscopy; format: functional, organism-based
[14] = tested on: Lindernia procumbens; test: Herbicidal activity against Lindernia procumbens assessed as compound application rate causing complete weed control measured 30 days after compound treatment under green house conditions; format: functional
[15] = tested on: Echinochloa oryzicola; test: Induction of necrotic symptoms in root tip of Echinochloa oryzicola seedlings exposed to 10 uM compound measured after 24 to 72 hr days post compound treatment; format: functional, organism-based
[16] = tested on: Echinochloa oryzicola; test: Inhibition of root growth of Echinochloa oryzicola seedlings exposed to 10 uM compound 3 days after sowing measured after 24 to 72 hr days post compound treatment; format: functional, organism-based
[17] = tested on: Pontederia vaginalis; test: Herbicidal activity against Monochoria vaginalis assessed as compound application rate causing complete weed control measured 30 days after compound treatment under green house conditions; format: functional
[18] = tested on: Echinochloa oryzicola; test: Herbicidal activity against Echinochloa oryzicola assessed as compound application rate causing complete weed control measured 30 days after compound treatment under green house conditions; format: functional
[19] = tested on: Echinochloa oryzicola; test: Induction of plant secretory pathway perturbations in Echinochloa oryzicola seedlings root tips area exposed to 10 uM compound 3 days after sowing assessed as induction of endoplasmic reticulum swellings measured after 4 hr days post compound treatment by electron microscopy; format: functional, organism-based
[20] = tested on: Echinochloa oryzicola; test: as §2, with “vesicles accumulation at plasma” for “curved cell wall”, “4” for “8”; format: functional, organism-based
[21] = tested on: Echinochloa oryzicola; test: Inhibition of shoot growth of Echinochloa oryzicola seedlings exposed to 10 uM compound 3 days after sowing measured after 24 to 72 hr days post compound treatment; format: functional, organism-based
[22] = tested on: Echinochloa oryzicola; test: Inhibition of shoot growth of Echinochloa oryzicola seedlings exposed to 10 uM compound immediately after sowing measured after 2 days post compound treatment; format: functional, organism-based
[23] = tested on: Rotala indica; test: Herbicidal activity against Rotala indica assessed as compound application rate causing complete weed control measured 30 days after compound treatment under green house conditions; format: functional
[24] = tested on: Echinochloa oryzicola; test: Induction of plant secretory pathway perturbations in Echinochloa oryzicola seedlings root tips area exposed to 10 uM compound 3 days after sowing assessed as induction of curved cell wall membrane-cell wall interface measured after 4 hr days post compound treatment by electron microscopy; format: functional, organism-based
[25] = tested on: Echinochloa oryzicola; test: Induction of plant secretory pathway perturbations in Echinochloa oryzicola seedlings root tips area exposed to 10 uM compound 3 days after sowing assessed as induction of low electron dense area at membrane-cell wall interface measured after 4 hr days post compound treatment by electron microscopy; format: functional, organism-based
[26] = tested on: Echinochloa oryzicola; test: Inhibition of root growth of Echinochloa oryzicola seedlings exposed to 10 uM compound immediately after sowing measured after 3 days post compound treatment; format: functional, organism-based
[27] = tested on: Echinochloa oryzicola; test: Induction of plant secretory pathway perturbations in Echinochloa oryzicola seedlings exposed to 10 uM compound 3 days after sowing assessed as induction of morphological changes in root tip golgi apparatus measured after 4 hr days post compound treatment by electron microscopy; format: functional, organism-based

With CC1(C)SC(N2CCc3ccccc32)=NC1=O the Activity [1] was 80%, the Activity [2] was 80% and the Activity [3] was 20%. For the same compound, the Activity [4] was 80%.

CCC1(CC)SC(N2c3ccccc3OCC2C)=NC1=O (stereo not given) showed an Activity [5] of 0%, an Activity [6] of 70% and an Activity [2] of 100%.

For CC1COc2ccccc2N1C1=NC(=O)C(C)(C)S1 (stereo not given), the Activity [1] was 100%, the Activity [5] was 20% and the Activity [6] was 60%. The Activity [2] was 100%, the Activity [3] was 80% and the Activity [4] was 100%.

CC1(C)SC(N2CCOc3ccccc32)=NC1=O was tested, and the Activity [1] was 90%, the Activity [2] was 90% and the Activity [3] was 40%. The Activity [4] was 80%.

CCC1(CCl)SC(N2c3ccccc3OCC2C)=NC1=O (stereo not given) gave an Activity [5] of 20%, an Activity [6] of 50% and an Activity [2] of 100%.

CCN(CC)C(=O)n1cnc(S(=O)(=O)c2c(C)cc(C)cc2C)n1 [CAFENSTROLE] was tested, and the Activity [5] was 20% and the Activity [6] was 80%.

With CN(Cc1ccccc1)C1=NC(=O)C(C)(C)S1 the Activity [1] was 20%, the Activity [2] was 0% and the Activity [3] was 0%. It also gave an Activity [4] of 40%.

For CC1(C)SC(N2CCCc3ccccc32)=NC1=O, the Activity [1] was 90%, the Activity [2] was 90% and the Activity [3] was 60%. The Activity [4] was 90%.

Work on CN(C1=NC(=O)CS1)c1ccccc1 yielded an Activity [1] of 0%, an Activity [2] of 0% and an Activity [3] of 0%. The Activity [4] was 0%.

For CCC1(CCCl)SC(N2c3ccccc3OCC2C)=NC1=O (stereo not given), the Activity [5] was 0%, the Activity [6] was 60% and the Activity [2] was 100%.

CC1(C)SC(Nc2ccccc2)=NC1=O gave an Activity [1] of 80%, an Activity [2] of 60% and an Activity [3] of 60%. The Activity [4] was 80%.

For CCC1(C)SC(N2c3ccccc3OCC2C)=NC1=O (stereo not given), the Activity [5] was 0%, the Activity [6] was 60% and the Activity [2] was 100%.

In the case of CN(C1=NC(=O)C(C)(C)S1)c1ccccc1, the Activity [1] is reported as 90%, the Activity [2] is reported as 80% and the Activity [3] is reported as 60%. For the same compound, the Activity [4] was 80%.

CN(C1=NC(=O)C(C)(CCCl)S1)c1ccccc1 (stereo not given) gave an Activity [1] of 80%, an Activity [2] of 100% and an Activity [3] of 80%. The Activity [4] was 90%.

CCCC1(C)SC(N(C)c2ccccc2)=NC1=O (stereo not given) was tested, and the Activity [1] was 80%, the Activity [2] was 70% and the Activity [3] was 20%. The Activity [4] was 80%.

With CC1CCc2ccccc2N1C1=NC(=O)C(C)(C)S1 (stereo not given) the Activity [1] was 90%, the Activity [2] was 90% and the Activity [3] was 80%. For the same compound, the Activity [4] was 90%.

For CCN(C1=NC(=O)C(C)(C)S1)c1ccccc1, the Activity [1] was 80%, the Activity [2] was 60% and the Activity [3] was 20%. For the same compound, the Activity [4] was 80%.

For CC1COc2ccccc2N1C1=NC(=O)C(C)(CCCl)S1 (stereo not given), the Activity [7] was “Active”, the Activity [8] was “Active” and the Activity [9] was “Active”. The Activity [10] was 0.25 KgAi/ha, the Activity [11] was “Active” and the Activity [12] was 0.25 KgAi/ha. The Activity [5] was 0%, the Activity [6] was 70% and the Activity [13] was “Active”. For the same compound, the Activity [14] was 0.25 KgAi/ha, the Activity [15] was “Active” and the “growth inhibition (GI)” value [16] was “Active”. For the same compound, the Activity [17] was 0.25 KgAi/ha, the Activity [18] was 0.25 KgAi/ha and the Activity [19] was “Active”. For the same compound, the Activity [20] was “Active”, the “growth inhibition (GI)” value [21] was “inactive” and the “growth inhibition (GI)” value [22] was “Active”. For the same compound, the Activity [2] was 80%, the Activity [23] was 0.25 KgAi/ha and the Activity [24] was “Active”. For the same compound, the Activity [25] was “Active”, the “growth inhibition (GI)” value [26] was “Active” and the Activity [27] was “Active”.

Compound CCC1(C)SC(N(C)c2ccccc2)=NC1=O (stereo not given) has an Activity [1] of 80%, an Activity [2] of 80% and an Activity [3] of 40%. The Activity [4] was 90%.

In the case of CCCCN(C)C1=NC(=O)C(C)(C)S1, the Activity [1] is reported as 0%, the Activity [2] is reported as 0% and the Activity [3] is reported as 0%. It also gave an Activity [4] of 0%.

CC1SC(N(C)c2ccccc2)=NC1=O (stereo not given) showed an Activity [1] of 20%, an Activity [2] of 20% and an Activity [3] of 20%. It also gave an Activity [4] of 20%.

Source: ChEMBL document CHEMBL3045680, “Synthesis and Herbicidal Activity of 4-Thiazolone Derivatives and Their Effect on Plant Secretory Pathway” (J Pestic Sci, 2003)
